Columns and labels:
green foxtail = assay: Test C postemergence herbicide test; assay type: in vivo, Setaria viridis
In short: (§1)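 Plants were grown to the 1- to 4-leaf stage (2–18 cm) and then treated postemergence, or grown to the 2-leaf stage for the flooded paddy test. They were held in a greenhouse for 12 to 14 days and then scored by eye against controls, where 0 is no effect and 100 is complete control.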

downy bromegrass = assay: Test C postemergence herbicide test; assay type: in vivo, Bromus tectorum
In short: as §1

blackgrass = assay: Test C postemergence herbicide test; assay type: in vivo, Alopecurus myosuroides; details: for Blackgrass plant response rating: 500 g ai/ha
In short: as §1

wild oat = assay: Test C postemergence herbicide test; assay type: in vivo, Avenafatua
In short: as §1

canarygrass = assay: Test C postemergence herbicide test; assay type: in vivo, Phalaris minor
In short: as §1

wheat = assay: Test C postemergence herbicide test; assay type: in vivo, Triticum aestivum
In short: as §1

Italian ryegrass = assay: Test C postemergence herbicide test; assay type: in vivo, Lolium multiflorum
In short: as §1

windgrass = assay: Test C postemergence herbicide test; assay type: in vivo, Apera spica-venti
In short: as §1

winter barley = assay: Test C postemergence herbicide test; assay type: in vivo, Hordeum vulgare; details: for Barley, Winter plant response rating: 500 g ai/ha
In short: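 Postemergence sprays applied to plants 2 to 18 cm tall (1- to 4-leaf stage); paddy species grown to 2-leaf stage under flooding. After 12 to 14 days in greenhouse, visual rating versus untreated controls on 0–100 scale (0 no effect, 100 complete control).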

goosegrass = assay: Test C pre-/postemergence herbicide test; assay type: in vivo, Eleusine indica; details: preemergence
In short: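 Pre/post spray; non-phytotoxic solvent + surfactant. Post-timing 1–4 leaves, 2–18 cm. Read-out: visual % control vs untreated, day 12–14, greenhouse.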

[1] = Postemergence, 250 g ai/ha, scale 0 to 100, 0 no effect, 100 complete control
[2] = postemergence, 125 g ai/ha, scale 0 to 100
[3] = postemergence, 62 g ai/ha, scale 0 to 100
[4] = postemergence, 31 g ai/ha, scale 0 to 100
[5] = postemergence, 125 g ai/ha, scale 0 to 100 (0 no effect, 100 complete control)
[6] = postemergence, 62 g ai/ha, scale 0 to 100 (0 no effect, 100 complete control)
[7] = Postemergence, 500 g ai/ha, scale 0 to 100, 0 no effect, 100 complete control
[8] = 500 g ai/ha, scale 0 to 100 (0 no effect, 100 complete control), visual, 12 to 14 days
[9] = Postemergence, 500 g ai/ha, scale 0 to 100

## C#CCNC(=O)c1cccc(NC(=O)c2nn(C(C)(C)C)nc2CC)c1 [Compound 380]
Green foxtail; [1]
  Plant response rating, Foxtail, Green: 60
Green foxtail; [2]
  Plant response rating, Foxtail, Green: 60
Green foxtail; [3]
  Plant response rating, Foxtail, Green: 60
Downy bromegrass; [1]
  Plant response rating, Bromegrass, Downy: 65
Downy bromegrass; [2]
  Plant response rating, Bromegrass, Downy: 60
Downy bromegrass; [4]
  Plant response rating, Bromegrass, Downy: 45
Downy bromegrass; [3]
  Plant response rating, Bromegrass, Downy: 55
blackgrass; [1]
  Plant response rating, Blackgrass: 55
blackgrass; [2]
  Plant response rating, Blackgrass: 45
blackgrass; [4]
  Plant response rating, Blackgrass: 40
blackgrass; [3]
  Plant response rating, Blackgrass: 40
Wild oat; [2]
  Plant response rating, Oat, Wild: 60
Wild oat; [3]
  Plant response rating, Oat, Wild: 55
canarygrass; [1]
  Plant response rating, Canarygrass: 45
canarygrass; [2]
  Plant response rating, Canarygrass: 40
canarygrass; [4]
  Plant response rating, Canarygrass: 30
canarygrass; [3]
  Plant response rating, Canarygrass: 40
wheat; [2]
  Plant response rating, Wheat: 25
wheat; [3]
  Plant response rating, Wheat: 20
Italian ryegrass; [2]
  Plant response rating, Ryegrass, Italian: 50
Italian ryegrass; [3]
  Plant response rating, Ryegrass, Italian: 45
windgrass; [2]
  Plant response rating, Windgrass: 60
windgrass; [3]
  Plant response rating, Windgrass: 45
Winter barley; [1]
  Plant response rating, Barley, Winter: 30
Winter barley; [5]
  Plant response rating, Barley, Winter: 20
Winter barley; [4]
  Plant response rating, Barley, Winter: 10
Winter barley; [6]
  Plant response rating, Barley, Winter: 20

## C=CCOc1cccc(NC(=O)c2cc(C(C)(C)C)nn2CC)c1 [Compound 412]
Green foxtail; [1]
  Plant response rating, Foxtail, Green: 65
Green foxtail; [7]
  Plant response rating, Foxtail, Green: 65
Green foxtail; [2]
  Plant response rating, Foxtail, Green: 60
Green foxtail; [3]
  Plant response rating, Foxtail, Green: 45
Downy bromegrass; [1]
  Plant response rating, Bromegrass, Downy: 55
Downy bromegrass; [7]
  Plant response rating, Bromegrass, Downy: 60
Downy bromegrass; [2]
  Plant response rating, Bromegrass, Downy: 45
Downy bromegrass; [3]
  Plant response rating, Bromegrass, Downy: 40
blackgrass; Postemergence, scale 0 to 100
  Blackgrass plant response rating: 65
blackgrass; [1]
  Plant response rating, Blackgrass: 65
blackgrass; [2]
  Plant response rating, Blackgrass: 45
blackgrass; [3]
  Plant response rating, Blackgrass: 45
Wild oat; [7]
  Plant response rating, Oat, Wild: 70
Wild oat; [2]
  Plant response rating, Oat, Wild: 65
Wild oat; [3]
  Plant response rating, Oat, Wild: 60
canarygrass; [1]
  Plant response rating, Canarygrass: 60
canarygrass; [7]
  Plant response rating, Canarygrass: 60
canarygrass; [2]
  Plant response rating, Canarygrass: 45
canarygrass; [3]
  Plant response rating, Canarygrass: 45
wheat; [7]
  Plant response rating, Wheat: 50
wheat; [2]
  Plant response rating, Wheat: 35
wheat; [3]
  Plant response rating, Wheat: 35
Italian ryegrass; [7]
  Plant response rating, Ryegrass, Italian: 60
Italian ryegrass; [2]
  Plant response rating, Ryegrass, Italian: 45
Italian ryegrass; [3]
  Plant response rating, Ryegrass, Italian: 40
windgrass; [7]
  Plant response rating, Windgrass: 65
windgrass; [2]
  Plant response rating, Windgrass: 45
windgrass; [3]
  Plant response rating, Windgrass: 40
Winter barley; Postemergence, scale 0 to 100
  Barley, Winter plant response rating: 50
Winter barley; [1]
  Plant response rating, Barley, Winter: 40
Winter barley; [5]
  Plant response rating, Barley, Winter: 35
Winter barley; [6]
  Plant response rating, Barley, Winter: 30

## CCc1nn(C(C)(C)C)nc1C(=O)Nc1cccc(C(=O)NC2CC2)c1 [Compound 417]
Green foxtail; [1]
  Plant response rating, Foxtail, Green: 60
Green foxtail; [7]
  Plant response rating, Foxtail, Green: 65
Green foxtail; [2]
  Plant response rating, Foxtail, Green: 55
Green foxtail; [3]
  Plant response rating, Foxtail, Green: 50
Downy bromegrass; [1]
  Plant response rating, Bromegrass, Downy: 50
Downy bromegrass; [7]
  Plant response rating, Bromegrass, Downy: 65
Downy bromegrass; [2]
  Plant response rating, Bromegrass, Downy: 40
Downy bromegrass; [3]
  Plant response rating, Bromegrass, Downy: 35
blackgrass; Postemergence, scale 0 to 100
  Blackgrass plant response rating: 60
blackgrass; [1]
  Plant response rating, Blackgrass: 60
blackgrass; [2]
  Plant response rating, Blackgrass: 50
blackgrass; [3]
  Plant response rating, Blackgrass: 35
Wild oat; [7]
  Plant response rating, Oat, Wild: 60
Wild oat; [2]
  Plant response rating, Oat, Wild: 40
Wild oat; [3]
  Plant response rating, Oat, Wild: 35
goosegrass; 62 g ai/ha, scale 0 to 100
  Plant response rating, Goosegrass: 95
goosegrass; 125 g ai/ha
  Plant response rating (0 = no effect, 100 = complete control), Goosegrass: 100
goosegrass; 250 g ai/ha, scale 0-100
  Plant response rating, Goosegrass: 100
goosegrass; [8]
  Plant response rating, Goosegrass: 100
canarygrass; [1]
  Plant response rating, Canarygrass: 45
canarygrass; [7]
  Plant response rating, Canarygrass: 55
canarygrass; [2]
  Plant response rating, Canarygrass: 40
canarygrass; [3]
  Plant response rating, Canarygrass: 30
wheat; [7]
  Plant response rating, Wheat: 35
wheat; [2]
  Plant response rating, Wheat: 20
wheat; [3]
  Plant response rating, Wheat: 20
Italian ryegrass; [7]
  Plant response rating, Ryegrass, Italian: 60
Italian ryegrass; [2]
  Plant response rating, Ryegrass, Italian: 40
Italian ryegrass; [3]
  Plant response rating, Ryegrass, Italian: 35
windgrass; [7]
  Plant response rating, Windgrass: 55
windgrass; [2]
  Plant response rating, Windgrass: 40
windgrass; [3]
  Plant response rating, Windgrass: 40
Winter barley; Postemergence, scale 0 to 100
  Barley, Winter plant response rating: 35
Winter barley; [1]
  Plant response rating, Barley, Winter: 30
Winter barley; [5]
  Plant response rating, Barley, Winter: 20
Winter barley; [6]
  Plant response rating, Barley, Winter: 20

## CCn1nc(C2(C)CC2)cc1C(=O)Nc1cccc(C(=O)N2CC=CC2)c1 [Compound 304]
Green foxtail; [9]
  Foxtail, Green plant response rating: 60
Green foxtail; [1]
  Plant response rating, Foxtail, Green: 50
Green foxtail; [2]
  Plant response rating, Foxtail, Green: 45
Green foxtail; [3]
  Plant response rating, Foxtail, Green: 40
Downy bromegrass; [9]
  Bromegrass, Downy plant response rating: 50
Downy bromegrass; [1]
  Plant response rating, Bromegrass, Downy: 40
Downy bromegrass; [2]
  Plant response rating, Bromegrass, Downy: 40
Downy bromegrass; [3]
  Plant response rating, Bromegrass, Downy: 40
blackgrass; Postemergence, scale 0 to 100
  Blackgrass plant response rating: 95
blackgrass; [1]
  Plant response rating, Blackgrass: 70
blackgrass; [2]
  Plant response rating, Blackgrass: 50
blackgrass; [3]
  Plant response rating, Blackgrass: 60
Wild oat; [9]
  Oat, Wild plant response rating: 70
Wild oat; [1]
  Plant response rating, Oat, Wild: 60
Wild oat; [2]
  Plant response rating, Oat, Wild: 60
Wild oat; [3]
  Plant response rating, Oat, Wild: 60
goosegrass; 62 g ai/ha, scale 0 to 100
  Plant response rating, Goosegrass: 45
goosegrass; 125 g ai/ha, scale 0 (no effect) to 100 (complete control), visual, 12 to 14 days
  Plant response rating, Goosegrass: 85
goosegrass; 250 g ai/ha, scale 0-100
  Plant response rating, Goosegrass: 90
goosegrass; [8]
  Plant response rating, Goosegrass: 100
canarygrass; [9]
  Canarygrass plant response rating: 45
canarygrass; [1]
  Plant response rating, Canarygrass: 45
canarygrass; [2]
  Plant response rating, Canarygrass: 40
canarygrass; [3]
  Plant response rating, Canarygrass: 40
wheat; [9]
  Wheat plant response rating: 40
wheat; [1]
  Plant response rating, Wheat: 40
wheat; [2]
  Plant response rating, Wheat: 40
wheat; [3]
  Plant response rating, Wheat: 35
Italian ryegrass; [9]
  Ryegrass, Italian plant response rating: 50
Italian ryegrass; [1]
  Plant response rating, Ryegrass, Italian: 50
Italian ryegrass; [2]
  Plant response rating, Ryegrass, Italian: 50
Italian ryegrass; [3]
  Plant response rating, Ryegrass, Italian: 50
windgrass; [9]
  Windgrass plant response rating: 45
windgrass; [1]
  Plant response rating, Windgrass: 40
windgrass; [2]
  Plant response rating, Windgrass: 35
windgrass; [3]
  Plant response rating, Windgrass: 35
Winter barley; Postemergence, scale 0 to 100
  Barley, Winter plant response rating: 45
Winter barley; [1]
  Plant response rating, Barley, Winter: 35
Winter barley; [5]
  Plant response rating, Barley, Winter: 35
Winter barley; [6]
  Plant response rating, Barley, Winter: 35

## CCOC(=O)c1ccc(F)c(NC(=O)c2cc(C3(C)CC3)nn2CC)c1 [Compound 296]
Green foxtail; [1]
  Plant response rating, Foxtail, Green: 60
Green foxtail; [2]
  Plant response rating, Foxtail, Green: 50
Green foxtail; [3]
  Plant response rating, Foxtail, Green: 40
Downy bromegrass; [1]
  Plant response rating, Bromegrass, Downy: 45
Downy bromegrass; [2]
  Plant response rating, Bromegrass, Downy: 35
Downy bromegrass; [4]
  Plant response rating, Bromegrass, Downy: 25
Downy bromegrass; [3]
  Plant response rating, Bromegrass, Downy: 35
blackgrass; [1]
  Plant response rating, Blackgrass: 75
blackgrass; [2]
  Plant response rating, Blackgrass: 65
blackgrass; [4]
  Plant response rating, Blackgrass: 45
blackgrass; [3]
  Plant response rating, Blackgrass: 60
Wild oat; [1]
  Plant response rating, Oat, Wild: 60
Wild oat; [2]
  Plant response rating, Oat, Wild: 60
Wild oat; [3]
  Plant response rating, Oat, Wild: 35
canarygrass; [1]
  Plant response rating, Canarygrass: 55
canarygrass; [2]
  Plant response rating, Canarygrass: 40
canarygrass; [4]
  Plant response rating, Canarygrass: 30
canarygrass; [3]
  Plant response rating, Canarygrass: 30
wheat; [1]
  Plant response rating, Wheat: 40
wheat; [2]
  Plant response rating, Wheat: 35
wheat; [3]
  Plant response rating, Wheat: 35
Italian ryegrass; [1]
  Plant response rating, Ryegrass, Italian: 65
Italian ryegrass; [2]
  Plant response rating, Ryegrass, Italian: 45
Italian ryegrass; [3]
  Plant response rating, Ryegrass, Italian: 35
windgrass; [1]
  Plant response rating, Windgrass: 65
windgrass; [2]
  Plant response rating, Windgrass: 50
windgrass; [3]
  Plant response rating, Windgrass: 45
Winter barley; [1]
  Plant response rating, Barley, Winter: 45
Winter barley; [5]
  Plant response rating, Barley, Winter: 40
Winter barley; [4]
  Plant response rating, Barley, Winter: 30
Winter barley; [6]
  Plant response rating, Barley, Winter: 35
